Assays:
[1] = tested on: HT29 (a human colon cancer cell line) tumor xenograft; assay: Whole body fluorescence imaging of HT29 tumor xenograft bearing mouse (IVIS imager); format: in vivo; details: 10 nmol
Protocol: HT29 (a human colon cancer cell line) tumor xenograft bearing mouse was injected with 10 nmol of 61 and imaged with IVIS imager (ex=745 nm, em=ICG, exposure time=1 s) at different time intervals.
(§1) HT29 (a human colon cancer cell line) and HCC827 (a human lung cancer cell line) tumor xenograft bearing mouse was injected with 10 nmol of 61 and imaged with IVIS imager (ex=745 nm, em=ICG, exposure time=1 s) at different time intervals.

[2] = tested on: HCC827 (a human lung cancer cell line) tumor xenograft; assay: Whole body fluorescence imaging of HCC827 tumor xenograft bearing mouse (IVIS imager); format: in vivo; details: 10 nmol
Protocol: HCC827 (a human lung cancer cell line) tumor xenograft bearing mouse was injected with 10 nmol of 61 and imaged with IVIS imager (ex=745 nm, em=ICG, exposure time=1 s) at different time intervals.
as §1

[3] = tested on: SKRC52 human renal tumor xenograft; assay: Whole body fluorescence imaging of SKRC52 human renal tumor xenograft bearing mouse (IVIS imager); format: in vivo; details: 10 nmol, within 2-24 hours after administering to the animal
Protocol: SKRC52 human renal tumor xenograft bearing mouse was injected with 10 nmol of 54 and imaged with IVIS imager (ex=745 nm, em=ICG, exposure time=1 s) at different time intervals.
SKRC52 human renal tumor xenograft bearing mouse was injected with 10 nmol of 55 and imaged with IVIS imager (ex=745 nm, em=ICG, exposure time=1 s) at different time intervals.
SKRC52 human renal tumor xenograft bearing mouse was injected with 10 nmol of 60 and imaged with IVIS imager (ex=745 nm, em=ICG, exposure time=[…]) at different time intervals.
SKRC52 human renal tumor xenograft bearing mouse was injected with 10 nmol of 61 and imaged with IVIS imager (ex=745 nm, em=ICG, exposure time=[…]) at different time intervals.
SKRC52 human renal tumor xenograft bearing mouse was injected with 10 nmol of 62 and imaged with IVIS imager (ex=745 nm, em=ICG, exposure time=1 s) at different time intervals.
SKRC52 human renal tumor xenograft bearing mouse was injected with 10 nmol of 65 and imaged with IVIS imager (ex=745 nm, em=ICG, exposure time=1 s) at different time intervals.
SKRC52 human renal tumor xenograft bearing mouse was injected with 10 nmol of 69 and imaged with IVIS imager (ex=745 nm, em=ICG, exposure time=1 s) at different time intervals.
SKRC52 human renal tumor xenograft bearing mouse was injected with 10 nmol of 70 and imaged with IVIS imager (ex=745 nm, em=ICG, exposure time=1 s) at different time intervals.
SKRC52 human renal tumor xenograft bearing mouse was injected with 10 nmol 72 and imaged with IVIS imager (ex=745 nm, em=ICG, exposure time=1 s) at different time intervals
SKRC52 human renal tumor xenograft bearing mouse was injected with 10 nmol of 76 and imaged with IVIS imager (ex=745 nm, em=ICG, exposure time=1 s) at different time intervals
SKRC52 human renal tumor xenograft bearing mouse was injected with 10 nmol of 77 and imaged with IVIS imager (ex=745 nm, em=ICG, exposure time=1 s) at different time intervals
SKRC52 human renal tumor xenograft bearing mouse was injected with 10 nmol of 80 and imaged with IVIS imager (ex=745 nm, em=ICG, exposure time=1 s) at different time intervals
SKRC52 human renal tumor xenograft bearing mouse was injected with 10 nmol of 81 and imaged with IVIS imager (ex=745 nm, em=ICG, exposure time=1 s) at different time intervals
SKRC52 human renal tumor xenograft bearing mouse was injected with 10 nmol of 85 and imaged with IVIS imager (ex=745 nm, em=ICG, exposure time=1 s) at different time intervals
SKRC52 human renal tumor xenograft bearing mouse was injected with 10 nmol of 86 and imaged with IVIS imager (ex=745 nm, em=ICG, exposure time=1 s) at different time intervals
SKRC52 human renal tumor xenograft bearing mouse was injected with 10 nmol of 87 and imaged with IVIS imager (ex=745 nm, em=ICG, exposure time=1 s) at different time intervals
SKRC52 human renal tumor xenograft bearing mouse was injected with 10 nmol of 88 and imaged with IVIS imager (ex=745 nm, em=ICG, exposure time=1 s) at different time intervals
SKRC52 human renal tumor xenograft bearing mouse was injected with 10 nmol of 89 and imaged with IVIS imager (ex=745 nm, em=ICG, exposure time=1 s) at different time intervals
SKRC52 human renal tumor xenograft bearing mouse was injected with 10 nmol of 90 and imaged with IVIS imager (ex=745 nm, em=ICG, exposure time=1 s) at different time intervals
SKRC52 human renal tumor xenograft bearing mouse was injected with 10 nmol of 93 and imaged with IVIS imager (ex=745 nm, em=ICG, exposure time=1 s) at different time intervals
SKRC52 human renal tumor xenograft bearing mouse was injected with 10 nmol of 95 and imaged with IVIS imager (ex=745 nm, em=ICG, exposure time=1 s) at different time intervals
SKRC52 human renal tumor xenograft bearing mouse was injected with 10 nmol of 99 and imaged with IVIS imager (ex=745 nm, em=ICG, exposure time=1 s) at different time intervals […]

[4] = tested on: MDA-MB-231, a triple negative breast cancer cell line; assay: OTL410 accumulation in MDA-MB-231 tumor xenografts (AMI imager); format: in vivo; details: MDA-MB-231, 2 nmol/mouse, 4 h
Protocol: (§2) FIGS. 54A and 54B illustrate KB, a derivative of HeLa cervical cancer cell line. FIGS. 54C and 54D illustrate MDA-MB-231, a triple negative breast cancer cell line. FIGS. 54E and 54F illustrate FaDu, a head & neck cancer cell line; and FIGS. 54G and 54H illustrate HT29, a colorectal cancer cell line. OTL410 was administered at a dose of 2 nmol/mouse in 100 μl of 5% aqueous dextrose, and the images were collected 4 h later using an AMI imager with the mice under anesthesia.
(§3) Tumor Implantation and imaging: For establishing subcutaneous tumors from SKRC52, HT29 and 22RV1 cells, female nude mice were inoculated subcutaneously with 5×10^6 cells in 150 μl of 50% matrigel on the flank. […] Tumor sizes were measured using a digital calipers and tumor volumes were calculated using the formula (L/2)×W2 where L and W represent the length and width of the tumor. […] For the biodistribution studies, mice were euthanized at 3 h, 12 h or 24 h after injection of OTL410, and fluorescence images were collected ex vivo using the same instrument and imaging parameters described above. For quantification of tumor to background ratios, region of interest (ROI) was drawn for tumor and each tissue of interest and the total and mean fluorescence intensity were calculated using the proprietary software from Spectral Instruments. TBR for each organ and respective standard deviations were calculated using Excel software.

SKRC52 cells = assay: Uptake of OTL410 by SKRC cells in vitro by fluorescence microscopy; format: cell-based, human; details: 100 nmols, 2 h
Protocol: SKRC52 cells were incubated with 100 nmols of OTL410 for 2 h, and fluorescence images were acquired after removing unbound conjugate, and washing cells 2× with media.
For competition studies, 50,000 SKRC cells were grown on 8 well glass bottom slides for 48 h. Spent media was removed, and the cells were incubated with 100 nmols of OTL410 in 500 μl of fresh media alone or in presence of 200× non-fluorescent ligand (i.e. OTL410 without the dye) in a cell culture incubator for 2 h. Cells were then washed 2× with 500 μl of media, and after the second step of washing, 500 μl of serum free media was added to the cells. These cells were then imaged using a Nikon wide-field microscope.

SKRC52 xenografts = assay: Fluorescence imaging of tumor accumulation of OTL410 in nude mice bearing SKRC52 xenografts (AMI imager); format: in vivo, mouse
Protocol: FIG. 49 illustrates the time course of tumor accumulation by OTL410 by fluorescence imaging of nude mice bearing SKRC52 xenografts. After intravenous administration of 1 nmol of the conjugate in 100 μl of 5% aqueous dextrose, mice were anesthetized by isoflurane right before collecting each image. Tumor accumulation is evident as early as 15 min after injection of the conjugate, reaching peak intensity by 4 h.
Mice were euthanized by CO2 inhalation 3 h after intravenous administration of indicated concentrations of the conjugate, and epifluorescence images were collected ex vivo (Ex=745 nm, Em=810 nm FOV=25, binning 2, lamp power=55%). Five mice/per group were used for doses 0.25 nmol to 20 nmol, and image of 1 mouse representing each dose is presented.
Tumor Implantation and imaging: For establishing subcutaneous tumors from SKRC52, HT29 and 22RV1 cells, female nude mice were inoculated subcutaneously with 5×10^6 cells in 150 μl of 50% matrigel on the flank. KB tumors were established by inoculating female nude mice subcutaneously with 1×10^6 KB cells in 100 μl of folate deficient RPMI 1640 media. MDA MB-231 tumors were established by inoculating female nude mice subcutaneously with 2×10^6 cells in 100 μl of RPMI 1640 media. Tumor sizes were measured using a digital calipers and tumor volumes were calculated using the formula (L/2)×W2 where L and W represent the length and width of the tumor. When the tumors reached desired size (500-700 mm3), mice were randomly assigned to groups of 4-5. Each mouse was injected with varying concentrations of OTL410 in 100 μl of 5% aqueous dextrose. For the time course study, mice were imaged under anesthesia at varying time points starting at 15 minutes and up to 24 h using a Spectral AMI imaging system (Spectral Instruments Imaging) using the imaging parameters t=1 sec, f stop=2, FOV=25, binning=2, and lamp power=55%. For the biodistribution studies, mice were euthanized at 3 h, 12 h or 24 h after injection of OTL410, and fluorescence images were collected ex vivo using the same instrument and imaging parameters described above. For quantification of tumor to background ratios, region of interest (ROI) was drawn for tumor and each tissue of interest and the total and mean fluorescence intensity were calculated using the proprietary software from Spectral Instruments. TBR for each organ and respective standard deviations were calculated using Excel software.

[5] = tested on: FaDu, a head & neck cancer cell line; assay: OTL410 accumulation in FaDu tumor xenografts (AMI imager); format: in vivo; details: 2 nmol/mouse, 4 h
Protocol: as §2

[6] = tested on: KB, a derivative of HeLa cervical cancer cell line; assay: OTL410 accumulation in KB tumor xenografts (AMI imager); format: in vivo; details: 2 nmol/mouse, 4 h
Protocol: as §2, §3

[7] = tested on: HT29, a colorectal cancer cell line; assay: OTL410 accumulation in HT29 tumor xenografts (AMI imager); format: in vivo; details: HT29, 2 nmol/mouse, 4 h
Protocol: as §2, §3

[8] = tested on: CAIX expressing SKRC52 tumor; assay: OTL410 fluorescence-guided resection of CAIX expressing SKRC52 tumor from nude mice; format: in vivo; details: 1 nmol/mouse, euthanized 24 h later
Protocol: OTL410 was administered at a dose of 1 nmol/mouse in 100 μl of 5% aqueous dextrose, and the mouse was euthanized 24 h later. FIG. 53A illustrates the image acquired after ex vivo whole-body fluorescence imaging and skin around the tumor was removed. FIG. 53B illustrates, guided by the fluorescence image, the image acquired after the tumor was resected.
as §3

[9] = 1 nmol intravenous in 5% aqueous dextrose

Row | time after injection at which tumor accumulation is evident (SKRC52 xenografts; [9]) | time of peak tumor fluorescence intensity (SKRC52 xenografts; [9]) | tumor fluorescence intensity at 8 h (SKRC52 xenografts; 1 nmol intravenous, 8 h) | tumor fluorescence intensity maintained after 24 h (SKRC52 xenografts; 1 nmol intravenous, 24 h) | Structure (SMILES) | accumulation in CA IX-negative tumor xenografts of colon cancer versus other healthy tissues [1] | accumulation in CA IX-negative tumor xenografts of lung cancer versus other healthy tissues [2] | whole-body imaging data [3] | accumulation in tumor xenografts [4] | uptake by SKRC cells in vitro (SKRC52 cells) | dose dependence of accumulation in SKRC52 tumor xenografts (SKRC52 xenografts; 0.25 nmol to 20 nmol intravenous, 3 h, ex vivo images) | accumulation in tumor xenografts [5] | accumulation in tumor xenografts [6] | accumulation in tumor xenografts [7] | fluorescence-guided tumor resection [8]
1 | – | – | – | – | CC1(C)C(/C=C/C2=C(Oc3ccc(C[C@H](NC(=O)CCOCCOCCNC(=O)CCS(=O)(=O)c4c(F)c(F)c(S(N)(=O)=O)c(F)c4NC4CCCCCCC4)C(=O)O)cc3)C(=C/C=C3/N(CCCCS(=O)(=O)O)c4ccc(S(=O)(=O)O)cc4C3(C)C)/CCC2)=[N+](CCCCS(=O)(=O)[O-])c2ccc(S(=O)(=O)O)cc21 [Compound 61, 4-(2-((E)-2-((E)-2-(4-((S)-2-carboxy-16-((2-(cyclooctylamino)-3,5,6-trifluoro-4-sulfamoylphenyl)sulfonyl)-4,14-dioxo-7,10-dioxa-3,13-diazahexadecyl)phenoxy)-3-(2-((E)-3,3-dimethyl-5-sulfo-1-(4-sulfobutyl)indolin-2-ylidene)ethylidene)cyclohex-1-en-1-yl)vinyl)-3,3-dimethyl-5-sulfo-3H-indol-1-ium-1-yl)butane-1-sulfonate] | selectively accumulated | selectively accumulated | very good | – | – | – | – | – | – | –
2 | ≤ 15 min | ≤ 4 h | No loss in fluorescence intensity | ~80 % of peak intensity | CC1(C)C(/C=C/C2=C(Oc3ccc(C[C@H](NC(=O)CCOCCOCCNC(=O)CCCS(=O)(=O)c4c(F)c(F)c(S(N)(=O)=O)c(F)c4NC4CCCCCCC4)C(=O)O)cc3)C(=C/C=C3/N(CCCCS(=O)(=O)O)c4ccc(S(=O)(=O)O)cc4C3(C)C)/CCC2)=[N+](CCCCS(=O)(=O)[O-])c2ccc(S(=O)(=O)O)cc21 [OTL410] | – | – | – | tumor-specific accumulation | uptake | dose dependent accumulation | tumor-specific accumulation | tumor-specific accumulation | tumor-specific accumulation | complete removal of the tumor with no fluorescent cells left behind

Source: patent US11555821B2, “CA IX-NIR dyes and their uses” (On Target Laboratories, Inc., priority 2016, dated 2023)
